What was measured:
[1] = tested on: IBABP mRNA; test: Regulation of IBABP expression in Caco-2 cells, quantitative RT-PCR; format: cell-based, human; conditions: 100 nM, 24 h, normalized to ARPP0
Experimental: (§1) The expression of IBABP-L and IBABP was measured by quantitative RT-PCR. The mRNA copy number of each variant is normalized to the expression the housekeeping gene ARPP0. Values in the figure represent the average of three experiments with each replicate performed in duplicate.
(§2) To determine the relative expression levels of IBABP-L and IBABP, a two-step quantitative RT-PCR procedure was used. In the first step, complementary DNA (cDNA) was synthesized from total RNA. […] In the second step, quantitative PCT (QPCR) was carried out on a Mx 3000P Real-Time PCR System (Stratagene, La Jolla, Calif.) using a solution containing diluted cDNA (1:20; 2.0 μl), 1×SYBR Green PCR Master Mix (Applied Biosystems, Foster City, Calif.), and primers for IBABP-L, IBABP, or ARPP0 (0.25 μM). […]
(§3) Caco-2 cells were seeded in six-well plates (Falcon) at 2×10^5 cells/well. […] Cells were harvested, cellular RNA was isolated using the RNeasy Mini Kit (Qiagen) according to manufacturer instruction, and expression of IBABP variants was determined by QPCR as described above. […]

[2] = tested on: IBABP-L mRNA; test: Regulation of IBABP-L expression in Caco-2 cells, quantitative RT-PCR; format: cell-based, human; conditions: 24 h, normalized to ARPP0
Experimental: as §1, §2, §3

[3] = target: T1, BAR (Homo sapiens, UniProt Q96RI1); conditions: gene-selective BAR modulator; cited from earlier work
T1 sequence (Q96RI1 1-486): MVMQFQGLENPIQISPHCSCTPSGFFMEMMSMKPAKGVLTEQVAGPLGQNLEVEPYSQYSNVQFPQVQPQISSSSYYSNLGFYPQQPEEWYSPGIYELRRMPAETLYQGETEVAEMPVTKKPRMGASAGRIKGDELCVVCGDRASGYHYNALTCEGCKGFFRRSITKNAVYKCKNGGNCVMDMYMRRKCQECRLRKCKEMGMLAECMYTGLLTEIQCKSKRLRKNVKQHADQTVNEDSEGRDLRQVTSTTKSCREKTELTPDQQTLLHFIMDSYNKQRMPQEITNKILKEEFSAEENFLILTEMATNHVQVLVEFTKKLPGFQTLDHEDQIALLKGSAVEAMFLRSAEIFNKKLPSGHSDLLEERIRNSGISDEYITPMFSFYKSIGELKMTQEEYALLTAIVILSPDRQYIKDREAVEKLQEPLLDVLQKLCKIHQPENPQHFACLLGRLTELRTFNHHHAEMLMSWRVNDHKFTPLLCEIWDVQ

## CC1=C(/C=C/C(C)=C\C=C\C(C)=C\C(=O)O)C(C)(C)CCC1 [9cRA, 9-cis-retinoic acid]
[1]
  effect on expression of IBABP: up-regulated
[2]; 100 nM
  effect on expression of IBABP-L: without effect

## CCCCCCOc1c(\C(C)=C/C=C/C(C)=C/C(=O)O)cc(C(C)C)cc1C(C)C [AGN34]
[3]
  action on CYP7A1: agonist
  action on IBABP: antagonist
  action on SHP: neutral

## C[C@H](CCC(=O)O)[C@H]1CC[C@H]2[C@@H]3[C@H](O)C[C@@H]4C[C@H](O)CC[C@]4(C)[C@H]3CC[C@]12C [CDCA, chenodeoxycholic acid]
[2]; 100 μM
  effect on expression of IBABP-L: without effect

Source: patent publication US8563248B2, “Compositions and methods for detection of colorectal cancer” (priority 2005, dated 2013)
